Source: PubChem BioAssay (NCI)
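Interpolation was linear, between the two tested concentrations surrounding the appropriate level; five concentrations were tested over 48 hours in 96-well plates. GI50 marks 50% less growth. TGI marks complete inhibition of growth.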

Tests used:
Experiment in all cases: NCI tumour cell line growth inhibition, 48 h
[1] = test system: A498 renal
[2] = test system: CCRF-CEM leukemia
[3] = test system: HCC-2998 colon
[4] = test system: LOX IMVI melanoma
[5] = test system: MDA-MB-231 breast
[6] = test system: NCI-H23 lung
[7] = test system: NCI-H460 lung
[8] = test system: OVCAR-8 ovarian
[9] = test system: SK-OV-3 ovarian
[10] = test system: UACC-257 melanoma

## Cc1ncc(CO)c(CN)c1O
[1]
  TGI: > 100 µM
[2]
  TGI: > 100 µM
[3]
  TGI: > 100 µM
[4]
  TGI: > 100 µM
[5]
  TGI: > 100 µM
[6]
  TGI: > 100 µM
[7]
  TGI: > 100 µM
[8]
  TGI: > 100 µM
[9]
  TGI: > 100 µM
[10]
  TGI: > 100 µM

## CN(C)CCNC(=O)c1cccc2nc3c4ccccc4c4ccccc4c3nc12
[1]
  TGI: 15.6 µM
[2]
  TGI: 3.03 µM
[3]
  TGI: 11.5 µM
[4]
  TGI: 3.13 µM
[5]
  TGI: 3.32 µM
[6]
  TGI: 3.41 µM
[7]
  TGI: 2.35 µM
[8]
  TGI: 7.76 µM
[9]
  TGI: 13.4 µM
[10]
  TGI: 10.6 µM

## COc1cc2c(cc1OC)C(Cl)C(c1ccc(Cl)cc1)=C2Cl (stereo unspecified)
[1]
  TGI: 46 µM
[2]
  TGI: 30.6 µM
[4]
  TGI: 25.5 µM
[6]
  TGI: 41.1 µM
[7]
  TGI: 29.8 µM
[8]
  TGI: 60.5 µM
[9]
  TGI: 57.5 µM

## CCN(CC)Cc1ccc2cccnc2c1O
[1]
  TGI: 33.5 µM
[2]
  TGI: 13.3 µM
[3]
  TGI: 59.7 µM
[4]
  TGI: > 100 µM
[5]
  TGI: > 100 µM
[6]
  TGI: > 100 µM
[7]
  TGI: 19.8 µM
[8]
  TGI: 7.01 µM
[9]
  TGI: 25.1 µM
[10]
  TGI: > 100 µM

## C[C@@H]1CC[C@H]2C(COC/C=C/COCC3=C(C(F)(F)F)O[C@@H]4O[C@@]5(C)CC[C@H]6[C@H](C)CC[C@@H]3[C@@]46OO5)=C(C(F)(F)F)O[C@@H]3O[C@@]4(C)CC[C@@H]1[C@]32OO4
[1]
  GI50: 1.54 µM
  TGI: > 100 µM
[2]
  GI50: 0.0148 µM
  TGI: > 38.4 µM
[3]
  GI50: 0.472 µM
  TGI: > 100 µM
[5]
  GI50: < 0.0416 µM
  TGI: 0.865 µM
[6]
  GI50: < 0.0178 µM
  TGI: 12.3 µM
[7]
  GI50: 0.0226 µM
  TGI: > 100 µM
[8]
  GI50: < 0.0206 µM
  TGI: > 32.6 µM
[9]
  GI50: > 100 µM
  TGI: > 100 µM
[10]
  GI50: 0.0538 µM
  TGI: 11.8 µM

## O=C(c1cc(Br)ccc1O)c1cc(Br)ccc1O
[1]
  TGI: 31.4 µM
[2]
  TGI: 44.4 µM
[3]
  TGI: 33.2 µM
[4]
  TGI: 36.8 µM
[5]
  TGI: 33.5 µM
[6]
  TGI: 35.4 µM
[7]
  TGI: 32.1 µM
[8]
  TGI: 32 µM
[9]
  TGI: 35.8 µM
[10]
  TGI: 29.1 µM

## Cn1cnc([N+](=O)[O-])c1SCC(=O)O
[1]
  TGI: > 100 µM
[2]
  TGI: > 100 µM
[3]
  TGI: > 100 µM
[4]
  TGI: > 100 µM
[5]
  TGI: > 100 µM
[6]
  TGI: > 100 µM
[7]
  TGI: > 100 µM
[8]
  TGI: > 100 µM
[9]
  TGI: > 100 µM
[10]
  TGI: > 100 µM

## Oc1cc(O)cc(/C=C/c2ccc(O)c(O)c2)c1
[1]
  TGI: > 70 µM
[2]
  TGI: 24.3 µM
[3]
  TGI: 34.4 µM
[4]
  TGI: > 41.7 µM
[6]
  TGI: 40.2 µM
[7]
  TGI: 60.5 µM
[8]
  TGI: > 100 µM
[9]
  TGI: 47.7 µM
[10]
  TGI: > 100 µM

## NCS(=O)(=O)O
[1]
  TGI: > 100 µM
[2]
  TGI: > 100 µM
[3]
  TGI: > 100 µM
[4]
  TGI: > 100 µM
[5]
  TGI: > 100 µM
[6]
  TGI: > 100 µM
[7]
  TGI: > 100 µM
[8]
  TGI: > 100 µM
[9]
  TGI: > 100 µM
[10]
  TGI: > 100 µM

## COc1cc2ccc1-c1cc(ccc1O)CC1c3cc4c(cc3CCN1C)Oc1c(OC)cc3c(c1O4)C(C2)N(C)CC3 (stereo unspecified)
[1]
  TGI: 3.79 µM
[2]
  TGI: 5.18 µM
[3]
  TGI: 3.06 µM
[4]
  TGI: 3.75 µM
[6]
  TGI: 3.9 µM
[7]
  TGI: 3.23 µM
[10]
  TGI: 3.23 µM
